From patent US9808434B2, “Compound for treating cancer and diabetes” (CITY OF HOPE, priority 2011, dated 2017)

Tests used:
HIF-1α = HIF-1α protein expression in U251, immunoblotting; type: cell-based; settings: U251, 1-10 μM
Description: U251 cells were incubated with various concentrations of COH-SR4 (1˜10 μM). Whole-cell lysates were analyzed by immunoblotting with antibodies against HIF-1α. GAPDH was used as a loading control.

human VEGF promoter = assay: VEGF promoter luciferase reporter in U251; type: cell-based; settings: U251, 1 or 3 μM, 24 hours
Description: U251 cells expressing luciferase reporter containing human VEGF promoter were incubated with various concentrations of COH-SR4 (0, 1, or 3 μM) for 24 hours. Luciferase activity was determined and normalized to the cell number for each treatment. Data were represented as a ratio to vehicle control that was treated by DMSO.

SK-Mel-31 = assay: Colony formation assay, SK-Mel-31; type: cell-based, human; settings: 5 μM
Description: Cell survival was evaluated using a standard colony-forming assay. In total, 1×10^5 cells/mL were incubated with COH-SR4 (1.5 μM or 5 μM) or elesclomol (5 μM) for 24 h, and aliquots of 50 or 100 μL were added to 60 mm size petri dishes, containing 4 mL culture medium. After 7 or 10 days, adherent colonies were fixed, stained with 0.5% methylene blue for 30 min and colonies were counted using the Innotech Alpha Imager HP (91).

[1] = Blood chemistries in C57 B mice; type: in vivo, mouse; settings: 4 mg/kg b.w. alternate day, 2 weeks
Description: To evaluate the potential toxicity of COH-SR4 on animals, C57 B mice were treated with 0.1 mg/mice (4 mg/kg b.w.) of COH-SR4 or with vehicle on alternate day for 2 weeks (n=6). After the treatment period, blood and plasma/serum were isolated and analyzed. […] The plasma alanine transaminase (ALT) and alkaline phosphatase (ALP) were moderately higher in COH-SR4-treated mice (p<0.05), while the levels of two other liver enzymes; aspartate transaminase (AST) and lactate dehydrogenase (LDH) were similar with control mice (Table 5).

[2] = tested on: A2058, A101D and SK-Mel-28 melanoma cells; assay: Mitochondrial ROS, MitoSox Red; type: cell-based, human; settings: 5 μM, 1 h
Description: Briefly, cells (4×10^5 well) were seeded in a 6-well plate and incubated overnight. Twenty-four hours after plating, cells were treated with test compounds as indicated in each experiment. After washing with pre-warmed PBS, cells were incubated with fresh medium containing 5 μM MitoSox Red for 15 min at 37° C. The fluorescence intensity was measured at of 530ex/590em using flow cytometry (Cyan ADP). The cells only sample (no MitoSox dye added) was used as the background. Approximately 30,000 counts were made for each sample. Experiments were repeated for three times and at least duplicate samples were included in each experiment.
Mitochondrial ROS was measured by MitoSox Red according to the manufacturer's instructions (Molecular Probes, CA). The intensity of fluorescence was quantified by digital analysis of images obtained from confocal microscopy using Image Pro Premiere software (Media Cybernetics Inc., Bethesda, Md.) (A2058, FIG. 74A) or by flow cytometry (FIG. 74B). Cells were treated with either 5 μM of COH-SR4, rotenone (mitochondrial complex 1 inhibitor) or elesclomol for 1 h. *Results represent fold increase of ROS generation over control and are expressed as mean±SD from three independent experiments.

H1417 cells = assay: MTT assay, H1417; type: cell-based; settings: Homo sapiens, NCI-H1417, 48 h
Description: Cell density measurements were performed using a hemocytometer to count reproductive cells resistant to staining with trypan blue. Approximately 20,000 cells were plated into each well of 96-well flat-bottomed micro-titer plates. After 12 h or 24 h incubation at 37° C., medium containing either COH-SR4 (ranging 0-200 μM) or elesclomol (ranging 0-20 μM) were added to the cells. After 24 h, 48 h or 96 h incubation, 20 μL of 5 mg/mL MTT were introduced to each well and incubated for 2 h. The plates were centrifuged and medium was decanted. Cells were subsequently dissolved in 100 μl DMSO with gentle shaking for 2 h at room temperature, followed by measurement of OD570 (91).
The effect of COH-SR4 was first examined in a NCI panel of cancer cell lines, the results of which indicated good activity of COH-SR4 towards lung cancer (FIG. 78A). […] Values are presented as mean±SD from two separate determinations with eight replicates each (n=16) (FIG. 78B). […] Standard colony-forming assay was performed and the colonies were counted using Innotech Alpha Imager HP. […] TUNEL assay was performed using Promega fluorescence detection kit and examined using Zeiss LSM 510 META laser-scanning fluorescence microscope with filters 520 and 620 nm. […]

lung cancer cell lines = assay: TUNEL apoptosis assay, lung cancer cell lines; type: cell-based, human; settings: 1.5 μM, 24 h
Description: […] Apoptosis was determined by the labeling of DNA fragments with terminal deoxynucleotidyl-transferase dUTP nick-end labeling (TUNEL) assay using Promega fluorescence apoptosis detection system, and examined using Zeiss LSM 510 META laser scanning fluorescence microscope with filters 520 and 620 nm according to the protocol described previously (91). Photographs taken at identical exposure at ×400 magnification are presented.
The effect of COH-SR4 was first examined in a NCI panel of cancer cell lines, the results of which indicated good activity of COH-SR4 towards lung cancer (FIG. 78A). […] Values are presented as mean±SD from two separate determinations with eight replicates each (n=16) (FIG. 78B). The COH-SR4 treatment exerted a significant inhibitory effect on the survival of lung cancer cells [IC50: H1417 cells-1.2±0.2 μM, H1618 cells-1.5±0.2 μM, H358 cells-2.1±0.2 μM and H520 cells-2.4±0.3 μM]. […] Following initial screening for the anticancer activity of COH-SR4, the effect of COH-SR4 on clonogenic potential was studied. Standard colony-forming assay was performed and the colonies were counted using Innotech Alpha Imager HP. […] The effect of COH-SR4 on induction of apoptosis was further investigated. […] TUNEL assay was performed using Promega fluorescence detection kit and examined using Zeiss LSM 510 META laser-scanning fluorescence microscope with filters 520 and 620 nm. […]

Which results are given for `O=C(Nc1cc(Cl)cc(Cl)c1)Nc1cc(Cl)cc(Cl)c1` [COH-SR4, 1,3-bis(3,5-dichlorophenyl) urea]?
HIF-1α protein expression (HIF-1α): inhibited HIF-1α protein expression; luciferase expression (VEGF promoter) (human VEGF promoter): inhibited luciferase expression of VEGF protein; colony formation (SK-Mel-31): 40±4%; Hematocrit ([1]; mean ± SE, n=6): 41.0 ± 0.7%; Hemoglobin ([1]; mean ± SE, n=6): 13.9 ± 0.4 g/dL; Platelets ([1]; mean ± SE, n=6): 1055 ± 124 ×10^3/uL; RBC ([1]; mean ± SE, n=6): 8.7 ± 0.2 ×10^6/uL; WBC ([1]; mean ± SE, n=6): 7.4 ± 0.9 ×10^3/uL; ALP ([1]; plasma/serum): 119.3 ± 2.4 units/L; ALT ([1]; plasma/serum): 73.3 ± 2.4 units/L; AST ([1]; plasma/serum): 48.0 ± 3.0 units/L; Albumin ([1]; plasma/serum): 2.4 ± 0.1 g/dL; Cholsterol ([1]; plasma/serum): 82.0 ± 0.1 mg/dL; Creatinine ([1]; plasma/serum): 0.2 ± 0.0 mg/dL; Glucose ([1]; plasma/serum): 304.2 ± 21.1 mg/dL; LDH ([1]; plasma/serum): 822.7 ± 56.0 units/L; Triglycerides ([1]; plasma/serum): 78.7 ± 2.4 mg/dL; mitochondrial ROS production (MitoSox Red) [2]: induced ROS production; IC50 (H1417 cells): 1200 ± 200 nM; apoptosis (TUNEL) (lung cancer cell lines): induced apoptosis in all the lung cancer cell lines
